For data set [1], the system named is CHO-WT cells. As to the kind of experiment: AC-inhibition assay in CHO-WT cells not transfected with CB2Rs. It is filed as cell-based, Chinese hamster.
Procedure: To examine if the observed agonist activity is due to activation of CB2Rs, an additional AC-inhibition assay was performed.
Data set [2] relates to mice. As to the kind of experiment: Thermoregulation assay, antagonism of JWH-073-induced hypothermia. It is filed as in vivo, mouse. The following applies: 30 minute pretreatment before JWH-073 10 mg/kg. From the text:
Our hypothesis is that a dual activity CB1R antagonist/CB2R agonist will reduce the reinforcing effects of EtOH as well as reduce the conditioned rewarding effects of ethanol in mice. The compounds selected will firstly be put through a thermoregulation assay as a screen for potential cannabinoid receptor activity. Thermoregulation will be used as a screen because of the well-established hypothermic effects seen with the use of cannabinoid ligands. This assay was done using glass radiotelemetry probes that were surgically implanted in each mouse, which monitor core temperature in response to drug administration. […] This screen does indeed confirm the in vivo cannabinoid activity of TV-5-249 and TV-6-41 and it also illustrates the evident antagonist effects against agonist induced hypothermia.

In data set [3] the target is CB1Rs endogenously expressed in Neuro2A cells (Mus musculus (Mouse), UniProt P47746). The data set is described as follows: Adenylyl cyclase (AC) inhibition via CB1Rs endogenously expressed in Neuro2A cells. It is filed as cell-based. The following applies: for antagonism of AC-inhibition produced by the CB1R full agonist JWH-073: 1 μM concentration; for inhibition at 10 µM: N2a.

Data set [4] has as its target T1, hCB2Rs (Homo sapiens (Human), UniProt P34972). The data set is described as follows: Competition receptor binding with [3H]CP-55,940 in CHO-hCB2 cell homogenates. The following applies: Table 3; read-out: hCB2R Ki. As to the method:
(§1) Competition receptor binding was performed as previously described. […] Reactions were terminated by rapid vacuum filtration through Whatman GF/B glass fiber filters, followed by five washes with ice-cold buffer (50 mM Tris, 0.05% BSA). Filters were immediately placed into 7 mL scintillation vials to which 4 mL of ScintiVerse™ BD Cocktail scintillation fluid (Fisher Scientific, Fair Lawn, N.J.) was added. Bound radioactivity was determined after overnight incubation at room temperature and shaking, by liquid scintillation spectrophotometry with an efficiency of 44% (Tri Carb 2100 TR Liquid Scintillation Analyzer, Packard Instrument Company, Meriden, Conn.). Specific binding is expressed as total binding minus non-specific binding, and is graphed for each data point as a percentage of specific binding occurring in the absence of any competitor.
(§2) The prepared analogues were subjected to in vitro pharmacological testing, which included receptor binding and functional assays at both cannabinoid receptors. Initial receptor binding screens at both CB1Rs and CB2Rs were conducted for the analogues prepared.

Data set [5] deals with mice. The data set is described as follows: Oral EtOH self administration, 2-bottle choice procedure. Conditions: daily treatment 10 mg/kg. From the text:
These assays are important models for the study of alcoholism because they model several aspects of this condition including voluntary EtOH drinking (SA), conditioned EtOH reward (CPP), abstinence and relapse, which represent extinction and reinstatement of CPP, respectively. Effects of TV-5-249 on voluntary 10% EtOH drinking were studied using a 2-bottle choice procedure described by Keane and coworkers as wells as by Cunningham and coworkers. […] After 5 such observations, which represents a two week washout period, daily treatments with 10 mg/kg TV-5-249 were initiated. […] The last treatment was an everyday injection of vehicle, which is 8% Tween/92% sterile water solution and it represents the solution in which both drugs were dissolved in prior to injections.

Data set [6] concerns the target T1, hCB2Rs. The data set is described as follows: Inhibition of forskolin-stimulated cAMP production (adenylyl cyclase) in intact CHO-hCB2R cells. Type of data set: cell-based. The following applies: for inhibition at 10 µM: CHO cell transfected with hCB2 receptors, read-out: AC-inhibition at CB2Rs; for inhibition of AC-activity at CB2Rs, concentration-effect: CHO-hCB2 cells. The method, then: Adenylyl cyclases are a family of membrane-bound enzymes that catalyze the intracellular production of the second messenger cAMP from ATP. Adenylyl cyclase activity is modulated by activated G-proteins: Gs-proteins stimulate activity, while Gi/o-proteins are inhibitory. Thus, agonists of G-protein coupled receptors (GPCRs) coupled to Gi/o-proteins, such as hCB2Rs, decrease cAMP production due to inhibition of adenylyl cyclase activity. In this assay, intact CHO-hCB2R cells are preincubated with [^3H]-adenine and treated with forskolin (10 or 30 μM) to stimulate adenylyl cyclase activity.
A functional assay screen for the inhibition of adenylate cyclase (AC) activity was chosen as the subsequent assay. […] Reaching full-receptor occupancy, which is predicted to produce maximal efficacy, is desirable at 10 μM concentration of all the compounds was used.

The target in data set [7] is T2, CB1Rs (Mus musculus (Mouse), UniProt P47746). The data set is described as follows: Competition receptor binding with [3H]CP-55,940 in mouse brain homogenates. The following applies: Table 3; read-out: mCB1R Ki. The method, then:
(§3) Mouse brain homogenates for in vitro assays were prepared as previously described. Briefly, whole brains were harvested from B6SJL mice, snap-frozen in liquid nitrogen and stored at −80° C. On the day membrane homogenates were to be prepared, brains were thawed on ice, then pooled in a 40 mL Dounce glass homogenizer and suspended in 5 volumes of ice cold homogenization buffer (50 mM HEPES, pH 7.4, 3 mM MgCl2, and 1 mM EGTA). Brains were then subjected to 10 complete strokes with an A pestle, followed by centrifugation at 40,000×g for 10 minutes at +4° C. Resulting supernatants were discarded, and the pellet was resuspended, homogenized and centrifuged similarly twice more, with supernatants being discarded. For the final resuspension and homogenization with a B pestle, ice-cold 50 mM HEPES was used in place of homogenization buffer, and homogenates were aliquoted and stored at −80° C. Protein concentrations of homogenates were determined using the BCA™ Protein Assay (Thermo Scientific, Rockford, Ill.).
as §1
(§4) Curve fitting and statistical analyses for in vitro experiments were performed using GraphPad Prism™ version 5.0b (GraphPad Software Inc., San Diego, Calif.). The Cheng-Prusoff equation [45] was used to convert the experimental IC50 values obtained from competition receptor binding experiments to Ki values, a quantitative measure of receptor affinity. Non-linear regression for one-site competition was used to determine the IC50 for competition receptor binding. Curve fitting of concentration-effect curves via non-linear regression was also employed to determine the EC50 (a measure of potency) and Emax (a measure of efficacy) for [^35S]GTPγS concentration-effects experiments. […] Data are expressed as mean±SEM. The Student's t-test was used to determine statistical significance (P<0.05) between two groups, while a one-way ANOVA, followed by Tukey's Multiple Comparison post-hoc test, was used to determine statistical significance (P<0.05) between three or more groups.
as §2

Data set [8] has as its system mice. The data set is described as follows: Alcohol conditioned place preference (CPP). Type of data set: in vivo, mouse. Conditions: 10 mg/kg given 1 hour before EtOH pairings. The method, then:
Alcohol conditioned place preference assay was done with compounds TV-6-41 and rimonabant. This assay tests the effects of these compounds on conditioned rewarding effects of EtOH. Training of mice involved 4 daily injections of […] EtOH paired with location to one of two chambers (four pairings) after which an increase in time spent in the EtOH-paired chamber was observed, and this points to the development of conditioned place preference (FIG. 24, ‘Pre” bar vs. “Post” bar). […] With the CPP training underway, mice were exposed to succeeding conditioning trials either with 10 mg/kg TV-6-41 or […] 1 hour before EtOH pairings. […] During these studies it was observed that 4 pairings of […] EtOH elicited a CPP of about 400 sec (FIG. 25, “No inj” bar).

Data set [9] concerns the target T2, CB1Rs. Conditions: mouse brain homogenates; values previously reported [39]; read-out: [3H]CP binding Ki; cited from earlier work.
Data set [10] concerns the target T2, CB1Rs. The data set is described as follows: [35S]GTPγS binding assay (G-protein activation) in mouse brain homogenates. It is filed as biochemical. The method, then: as §3
[^35S]GTPγS binding was performed as previously described. Briefly, 25 μg of mouse brain homogenates were incubated for 30 minutes at 30° C. with 0.1 nM [^35S]GTPγS, 10 μM GDP, and either cannabinoid+/−antagonist, 10 μM unlabeled GTPγS (non-specific binding) or vehicle (total binding), in triplicate, in a volume of 1 mL of buffer containing 20 mM HEPES, 10 mM MgCl2, 100 mM NaCl, 20 units/L adenosine deaminase, 0.05% BSA and the appropriate DMSO (0.1%) and/or ethanol (<0.2%) vehicle. Assay buffer containing 100 mM KCl, instead of 100 mM NaCl, was used to increase basal G-protein activity in experiments examining inverse agonism. Reactions were terminated by quick vacuum filtration through Whatman GF/B glass fiber filters, followed by five washes with ice-cold buffer (20 mM HEPES, 0.05% BSA). Filters were immediately placed into 7 mL scintillation vials to which 4 mL of ScintiVerse™ BD Cocktail scintillation fluid was added. Bound radioactivity was determined after overnight incubation at room temperature and shaking by liquid scintillation spectrophotometry with an efficiency of 93% (Tri Carb 2100 TR Liquid Scintillation Analyzer, Packard Instrument Company, Meriden, Conn.). Specific binding is expressed as picomoles of [^35S]GTPγS bound per mg of protein.
as §4

Where two headings read alike, the source gives them in different places. Marks after values point to notes of the source that are not given here.

With `CCCCn1cc(Cc2cccc3ccccc23)c2cccc(OC)c21` [TV-5-249, 1-butyl-7-methoxy-3-(naphthalen-1-ylmethyl)-1H-indole], the “AC-activity in CHO-WT cells not transfected with CB2Rs” value in data set [1] is “neither TV-5-249 nor TV-6-41 significantly modify AC-activity”. Also, the “effect on JWH-073-induced hypothermia” value in [2] is “significantly decreased the hypothermic effects of JWH-073”. Besides, the “antagonism of AC-inhibition produced by the CB1R full agonist JWH-073” value in [3] is recorded as “antagonize AC inhibition”. The same compound displayed an inhibition at 10 µM in data set [3] (10 μM, Neuro2A cells) of 18%. The “inhibition of AC-activity via CB1Rs, concentration-effect” value in [3] (Neuro2A cells) is on record as “very little inhibition of AC-activity”. Besides, the Ki in data set [4] came out at 10.9 nM. Besides, in [5], the “EtOH preference (10% EtOH, 2-bottle choice)” value was “reduced EtOH preference”; the body weight result was “did not decrease body weight”; the total fluid consumption entry is “without affecting total fluid consumption”. In [6], the inhibition at 10 µM was determined as 33.2% and the “inhibition of AC-activity at CB2Rs, concentration-effect” value is 40-50%. The inhibition constant Ki in [7] stood at 15.4 ± 2.2 nM.

In the case of `CCCCn1cc(-c2ccc3ccccc3c2)c2cccc(OC)c21` [TV-6-41, 1-butyl-7-methoxy-3-(naphthalen-2-yl)-1H-indole], the “AC-activity in CHO-WT cells not transfected with CB2Rs” value in data set [1] is given as “neither TV-5-249 nor TV-6-41 significantly modify AC-activity”. Besides, the “effect on JWH-073-induced hypothermia” value in data set [2] is “significantly decreased the hypothermic effects of JWH-073”. Moreover, the “antagonism of AC-inhibition produced by the CB1R full agonist JWH-073” value in [3] was “antagonize AC inhibition”. Also, the inhibition at 10 µM was found to be 16% in data set [3] (10 μM, Neuro2A cells) and 20.8% in [6]. The “inhibition of AC-activity via CB1Rs, concentration-effect” value in data set [3] (Neuro2A cells) was “very little inhibition of AC-activity”. The “EtOH conditioned place preference” value in data set [8] is on record as “conditioned rewarding effects of EtOH were blocked”. Also, the figures for the Ki in [4] and in [7] were 26.5 nM and 37.3 ± 11.8 nM, respectively. For the same compound, the “inhibition of AC-activity at CB2Rs, concentration-effect” value in [6] was 40-50%.

As for `Cc1c(C(=O)NN2CCCCC2)nn(-c2ccc(Cl)cc2Cl)c1-c1ccc(Cl)cc1` [rimonabant, 5-(4-Chlorophenyl)-1-(2,4-dichloro-phenyl)-4-methyl-N-(piperidin-1-yl)-1H-pyrazole-3-carboxamide, reference compound], the “EtOH conditioned place preference” value in data set [8] was “did not elicit a significant preference for the EtOH-paired chamber”. Also, in data set [5], the “EtOH preference (10% EtOH, 2-bottle choice)” value was “decreases EtOH preference”; the body weight result is “does indeed have an effect on body weight”; the total fluid consumption result is reported as “without having any effect on total fluid intake”.

Turning to `CCCCCCC(C)(C)c1ccc(C2CC(O)CC[C@H]2CCCO)c(O)c1` (some centres unmarked) [CP-55,940], the Ki in [9] was 0.26 ± 0.1 nM. Also, in data set [3] (10 μM, Neuro2A cells), the “AC-inhibition at CB1Rs” value is recorded as 45%. Besides, the “[35S]GTPγS Binding, 100 nM” value in data set [10] (100 nM) is 0.20 ± 0.04 pmol/mg. For the same compound, the “[35S]GTPγS Binding, +O-2050 (1 μM)” value in [10] (1 μM cannabinoid (100 nM for CP-55,940) co-incubated with CB1R antagonist O-2050 1 μM) was 0.06 ± 0.03 pmol/mg. Besides, in [10] (concentration-effect, mouse brain homogenates), the “[35S]GTPγS Binding Emax” value was 0.26 ± 0.01^a pmole/mg. The EC50 in data set [10] (concentration-effect, mouse brain homogenates, read-out: [35S]GTPγS Binding EC50) was 7.5 ± 1.8 nM.
